Where a SMILES comes first, the peptide text is derived from it.
Test: Kinetics in blood after injection into the tail vein
Design: species or system C57BL/6j mouse
Settings: female, C57BL/6j, mouse, in vivo, iv
Procedure: The kinetics in blood of the peptide of the formula (14) prepared in the Reference Example and the [^14 C]-labeled complex prepared in Example D-2 were studied.
To the vein of the tail of a C57BL/6j mouse (8 weeks old, female), 1,000 μg/0.2 cm^3 of the peptide or 100 μg/0.2 cm^3 of the labeled complex was injected. Upon expiration of a predetermined period of time, the carotid artery was cut for blood sampling. To quantitatively analyze the amount of the peptide in blood, to 1 cm^3 of the sampled blood, the same amount of 10% trifluoroacetic acid was added, followed by centrifugal separation at a speed of 10,000 rpm to precipitate the denatured protein, and the supernatant was recovered. […] To the obtained freeze-dried product, 0.2 cm^3 of distilled water was added, and the quantitative analysis was conducted by reversed phase (C18) chromatography. The quantitative analysis was conducted based on the quantitative curve obtained with a standard product (the peptide prepared in the Reference Example and quantitatively analyzed by an amino acid analysis).
To quantitatively analyze the [^14 C]-labeled complex, 2.5 cm^3 of a tissue solubilizer (NCA, Amersham Company) was added to 0.2 cm^3 of the sampled blood, followed by heating at 50° C. for two hours to solubilize the blood. […]

half-life: ~20 s
SMILES: C[C@H](N)C(=O)N[C@@H](CCC(=O)O)C(=O)N[C@@H](CC(=O)O)C(=O)NCC(=O)N[C@@H](CC(=O)O)C(=O)N[C@@H](C)C(=O)N[C@@H](CCCCN)C(=O)N[C@H](C(=O)N[C@@H](CC(=O)O)C(=O)N[C@@H](CCC(N)=O)C(=O)N[C@@H](C)C(=O)N[C@@H](CCC(=O)O)C(=O)N[C@@H](CCCCN)C(=O)N[C@@H](C)C(=O)N[C@@H](CCC(=O)O)C(=O)NCC(=O)N[C@@H](C)C(=O)NCC(=O)N[C@@H](CC(=O)O)C(=O)N[C@@H](C)C(=O)N[C@@H](CCCCN)C(=O)O)[C@@H](C)O [peptide of the formula (14), Ala-Glu-Asp-Gly-Asp-Ala-Lys-Thr-Asp-Glx-Ala-Glx-Lys-Ala-Glu-Gly-Ala-Gly-As p-Ala-Lys] (H-AEDGDAKTDQAEKAEGAGDAK-OH)

From patent publication US5548062A, “Tumor cell invasion-inhibiting peptides, peptide complexes and cancer metastasis inhibitors” (Asahi Glass Company Ltd., priority 1990, dated 1996)
